Measured values published in paper PMC9692552, “Activity and Synergy of Cu-ATCUN Antimicrobial Peptides” (International Journal of Molecular Sciences, 2022).
In brackets after ≈: the same amount, converted by molar mass. Several values for one entry are separate records, joined by “and”; a condition that tells them apart may be missing. Equal entries are not always repeated. Where two headings read alike, the source gives them in different places. Ends that are not written are not given here. Peptide text beside a SMILES is read from it.

Tests used:
A. baumannii BAA747 = type: cell-based, Acinetobacter baumannii
Description: (§1) The minimum inhibitory concentration of a peptide is the concentration at which no observable bacterial growth can be determined by visual inspection. MIC values are useful for determining the potential of a test article as a therapeutic, as well as in comparison to other test articles. A variety of antimicrobial peptides were tested for activity against an array of clinically relevant bacterial strains. The sequences of SMAP-29 derivatives and their key features can be seen in Table 1, with peptides being named in reference to how they were originally published. Peptides OV3-00 and OV3-01 were utilized in this study. Because the template (or parental) peptide, SMAP-29, derived from sheep leukocytes, is hemolytic to human red blood cells, efforts were made to enhance the therapeutic index of the peptide leading to the creation of OV and OV3 [14, 19]. Various derivatives were made and OV3 came to represent two distinct peptides in the literature: the peptide labeled OV3 and a peptide with an additional c-terminal YG, herein labeled OV3-00. Previous work in our laboratory utilized OV3 for the design and synthesis of ATCUN domain peptides, but it lacks a tryptophan or tyrosine residue that allows for more ready quantification of the peptide concentration by the extinction coefficient, leading to a less accurate, more difficult, concentration analysis by mass spectrometry. To ease quantification and facilitate studies on the OV3 series in our laboratory, and compare the effect of the added YG, additional work was pursued using the longer OV3-00 and OV3-01 derivatives.
(§2) Minimum inhibitory concentrations (MICs) of test molecules were established by broth dilution assays. Mid-log phase bacterial cultures of a variety of clinically important organisms were diluted and incubated with a serial dilution of each peptide, starting at 128 µM. The concentration of peptide at which no visible growth occurred was marked as the MIC. Bacterial strains were incubated in Mueller–Hinton Broth (MHB) at 37 degrees Celsius until the OD600 reached between 0.8 and 1. The resulting culture was subsequently diluted 100× into 96-well plates with the test articles. Positive and negative controls containing only MHB incubated with bacteria and MHB, respectively, were also included on the plate. Each 96-well plate was incubated for 16–20 h, and the MIC was determined by visual inspection. To determine the colony-forming units (CFUs) present in each assay, 100 µL of the 100× diluted culture was further diluted by 1000× and plated on agar plates and determined by use of Equation (1). The colonies were counted to ensure that the CFU value was between 10^4 and 10^5. CFU/mL = (mean # of colonies/0.1 mL) (1000 (dilution factor))(1)

E. faecium 700221 (VRE) = type: cell-based
Description: as §1, §2

S. aureus 43300 (MRSA) = type: cell-based
Description: as §1, §2

P. aeruginosa 27583 = type: cell-based
Description: as §1, §2

K. pneumoniae 700603 = type: cell-based
Description: as §1, §2

E. coli 25922 [1] = type: cell-based, Escherichia coli
Description: as §1, §2

E. coli 25922 [2] = assay: FIC of peptide pairs (two-way dilution, 96-well plate); type: cell-based, Escherichia coli; conditions: single peptide on the FIC plate, initial screen, one value given
Description: Determining MIC values informed decisions on testing peptides in combination. Fractional inhibitory concentrations determine the ability of test articles to act in concert against a pathogen. FIC determination is experimentally similar to MIC determination, except one test article is diluted down the wells and another is diluted across the wells of the 96-well plate in order to test the synergism of two peptides. […] Synergy is defined as an FIC of less than or equal to 0.5, meaning there is a four-fold reduction in the concentration of each peptide required for inhibition. Any number above 4 indicates a deleterious interaction that reduces the effectiveness of each peptide, and a value between 0.5 and 1 can be considered additive (Equation (2)).
Fractional inhibitory concentrations (FICs) were determined in a manner similar to MIC determinations but with serial dilutions of two peptides running both horizontally and vertically across the 96-well plate. Determination of the FIC can be seen in Equation (2), where FIC is the fractional inhibitory concentration, [A] is the concentration of substrate A at MIC in combination, [B] is the concentration of substrate B at MIC in combination, and MICA and MICB are the MIC of substrate A and substrate B, respectively. FIC = fractional inhibitory concentration, [A] = concentration of A at MIC in combination, [B] = concentration of B at MIC in combination, MICA = minimum inhibitory concentration of A, and MICB = minimum inhibitory concentration of B. When FIC ≤ 0.5 the results are synergistic. If FIC > 4, the results are antagonistic, and when FIC > 0.5, the results are indifferent or additive. (2) FIC=[A]/MICA+ [B]/MICB

Molecule | MIC (A. baumannii BAA747; A. baumannii BAA747, Gram (-), broth dilution in MHB, 37 °C, 16–20 h, visual inspection) [µM] | MIC (E. faecium 700221 (VRE); E. faecium 700221 (VRE), Gram (+), broth dilution in MHB, 37 °C, 16–20 h, visual inspection) [µM] | MIC (S. aureus 43300 (MRSA); S. aureus 43300 (MRSA), Gram (+), broth dilution in MHB, 37 °C, 16–20 h, visual inspection) [µM] | MIC (P. aeruginosa 27583; P. aeruginosa 27583, Gram (-), broth dilution in MHB, 37 °C, 16–20 h, visual inspection) [µM] | MIC (K. pneumoniae 700603; K. pneumoniae 700603, Gram (-), broth dilution in MHB, 37 °C, 16–20 h, visual inspection) [µM] | MIC (E. coli 25922 [1]; E. coli 25922, Gram (-), broth dilution in MHB, 37 °C, 16–20 h, visual inspection, dilution from 128 µM) [µM] | MIC (A. baumannii BAA747; BAA747) [µM] | MIC (E. faecium 700221 (VRE); 700221 (VRE)) [µM] | MIC (S. aureus 43300 (MRSA); 43300) [µM] | MIC (P. aeruginosa 27583; 27583) [µM] | MIC (K. pneumoniae 700603; 700603) [µM] | MIC (E. coli 25922 [1]; 25922) [µM] | MICA/MICB, concentration with no growth when dosed separately (E. coli 25922 [2])
CC[C@H](C)[C@H](NC(=O)[C@H](CC(C)C)NC(=O)[C@H](C)NC(=O)[C@@H]1CCCN1C(=O)[C@H](CC(C)C)NC(=O)CNC(=O)[C@@H](NC(=O)[C@@H](NC(=O)[C@H](CC(C)C)NC(=O)[C@@H](NC(=O)[C@H](CCCCN)NC(=O)[C@H](CCCCN)NC(=O)[C@@H](NC(=O)[C@H](C)NC(=O)[C@@H](NC(=O)[C@@H](NC(=O)[C@H](CC(C)C)NC(=O)[C@H](CCCCN)NC(=O)[C@H](CCCCN)NC(=O)[C@@H](NC(=O)[C@H](Cc1ccccc1)NC(=O)[C@H](CO)NC(=O)[C@H](CCCCN)NC(=O)[C@H](Cc1c[nH]c2ccccc12)NC(=O)[C@H](CCCCN)NC(=O)[C@H](Cc1c[nH]cn1)NC(=O)CNC(=O)CN)[C@@H](C)CC)[C@@H](C)O)[C@@H](C)O)C(C)C)C(C)C)[C@@H](C)O)[C@@H](C)O)C(=O)N[C@@H](CO)C(N)=O [CP29-01] | 1 (≈ 3.12 µg/mL) | 4 (≈ 12.5 µg/mL) | 16 (≈ 50 µg/mL) | 2 (≈ 6.25 µg/mL) | 8 (≈ 25 µg/mL) | 8 (≈ 25 µg/mL) |  |  |  |  |  |  | 
NCC(=O)NCC(=O)N[C@@H](Cc1c[nH]cn1)C(N)=O [GGH] (H-Gly-Gly-His-NH2) |  |  |  |  |  |  | >128 | >128 | >128 | >128 | >128 | >128 | 
CC[C@H](C)[C@H](NC(=O)[C@H](Cc1c[nH]cn1)NC(=O)CNC(=O)CN)C(=O)N[C@@H](CC(C)C)C(=O)N1CCC[C@H]1C(=O)N[C@@H](Cc1c[nH]c2ccccc12)C(=O)N[C@@H](CCCCN)C(=O)N[C@@H](Cc1c[nH]c2ccccc12)C(=O)N1CCC[C@H]1C(=O)N[C@@H](Cc1c[nH]c2ccccc12)C(=O)N[C@@H](Cc1c[nH]c2ccccc12)C(=O)N1CCC[C@H]1C(=O)N[C@@H](Cc1c[nH]c2ccccc12)C(=O)N[C@@H](CCCNC(=N)N)C(=O)N[C@@H](CCCNC(=N)N)C(=O)NCC(=O)NCC(=O)N[C@@H](CS)C(N)=O [IND-01] |  |  |  |  |  |  | 32 (≈ 76 µg/mL) | 8 (≈ 19 µg/mL) | 64 (≈ 152 µg/mL) | >64 | >64 | 32 (≈ 76 µg/mL) | 
CC(C)C[C@H](NC(=O)[C@H](Cc1ccccc1)NC(=O)[C@@H]1CCCN1C(=O)[C@H](Cc1c[nH]c2ccccc12)NC(=O)[C@H](Cc1c[nH]c2ccccc12)NC(=O)[C@H](Cc1c[nH]c2ccccc12)NC(=O)[C@@H]1CCCN1C(=O)[C@H](Cc1ccccc1)NC(=O)[C@H](CCCNC(=N)N)NC(=O)[C@H](CCCNC(=N)N)NC(=O)[C@@H](N)C(C)C)C(=O)N[C@@H](CCCNC(=N)N)C(=O)N[C@@H](CCCNC(=N)N)C(N)=O [TRP, tritrpticin] |  |  |  |  |  |  | 8 (≈ 15.2 µg/mL) | 2 (≈ 3.8 µg/mL) | 8 (≈ 15.2 µg/mL) | 16 (≈ 30.4 µg/mL) | 32 (≈ 60.8 µg/mL) | 8 (≈ 15.2 µg/mL) | 
FVQWFSKFLGRIL-NH2 [TempL] |  |  |  |  |  |  | 4 | 8 | 4 | 32 | 16 | 4 | 
GGHGIGKFLHSAKKWGKAFVGEIMNS-NH2 [Mag2-01] |  |  |  |  |  |  | 8 | 32 | >128 | 64 | 64 | 16 | 
GGHGVRRFPWWWPFLRR-NH2 [TRP-02, ATCUN derivative of tritrpticin] |  |  |  |  |  |  |  |  |  |  |  |  | 8 µM and 16 µM
GGHGVRRFPWWWPFLRRGGC-NH2 [TRP-03, ATCUN derivative of tritrpticin] |  |  |  |  |  |  |  |  |  |  |  |  | 16 µM
GGHIRRIIRKIIHIIKKYG-NH2 [OV3-01] |  |  |  |  |  |  | 8 | 4 | 16 | 16 | 16 | 4 | 
GGHVRRFPWWWPFLRRGGC-NH2 [TRP-01] |  |  |  |  |  |  | 16 | 8 | 32 | 64 | 32 | 32 | 
GGHYLGALLGPLMNLLQ-NH2 [PFQα-01] |  |  |  |  |  |  | 128 | >128 | 16 | >128 | >128 | >128 | 
GILAWKWAWWAWRR-NH2 [CP10A] |  |  |  |  |  |  | 8 | 8 | 4 | 64 | 32 | 16 | 
IRRIIRKIIHIIKKYG-NH2 [OV3-00] |  |  |  |  |  |  | 4 | 4 | 8 | 16 | 4 | 2 | 
